Test results reported in patent US20230085307A1, “PYRIDAZINONE COMPOUND AND HERBICIDE” (NISSAN CHEMICAL CORPORATION, priority 2019, published 2023).

Assays:
Japanese bulrush = test: Test Example 2: herbicidal activity, application during weed generation under submerged conditions (Table 17, symbol B); type: in vivo, Japanese bulrush (Schoenoplectus juncoides); settings: AAH 320 g/ha; application during weed generation, submerged conditions
Procedure, shortened: (§1)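 In this pot test, flooded alluvial soil (water depth 4 cm) holds all three species sown as a mixture. Once seedlings have one to two leaves, the compound's emulsion, thinned with water to the intended dose, is poured on the water; grading follows after three weeks on the earlier criteria.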

green foxtail [1] = test: Test Example 5: herbicidal effect by foliage application, plastic box (Table 20, symbol G); type: in vivo, green foxtail (Setaria viridis); settings: foliage application, 320 g/ha, three weeks after application
Procedure, shortened: (§2)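 Plants sown in sterilized diluvial soil and grown 14 days in a greenhouse at 25° C to 30° C, then sprayed on the foliage with the compound's emulsion diluted in water to a predetermined herbicide amount. Injury to weeds and crops scored three weeks after application on a visual rating scale.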

lambsquarters [2] = test: Test Example 5: herbicidal effect by foliage application, plastic box (Table 20, symbol O); type: in vivo, lambsquarters (Chenopodium album); settings: foliage application, 320 g/ha, three weeks after application
Procedure, shortened: as §2

blackgrass [3] = test: Test Example 5: herbicidal effect by foliage application, plastic box (Table 20, symbol J); type: in vivo, blackgrass (Alopecurus myosuroides); settings: foliage application, 320 g/ha, three weeks after application
Procedure, shortened: as §2

Italian ryegrass [4] = test: Test Example 4: herbicidal effect by soil treatment (Table 19, symbol K); type: in vivo, Italian ryegrass (Lolium multiflorum); settings: amount of applied herbicide 320 g/ha
Procedure, shortened: (§3)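 Three weeks of greenhouse growth at 25° C. to 30° C. followed a uniform surface spray of water-diluted emulsion at a predetermined herbicide amount. Seeds had been sown beforehand under about 1.5 cm of sterilized diluvial soil. Grading followed criteria set out in an earlier test.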

blackgrass [5] = test: Test Example 4: herbicidal effect by soil treatment (Table 19, symbol J); type: in vivo, blackgrass (Alopecurus myosuroides); settings: amount of applied herbicide 320 g/ha
Procedure, shortened: as §3

false cleavers [6] = test: Test Example 5: herbicidal effect by foliage application, plastic box (Table 20, symbol Q); type: in vivo, false cleavers (Galium spurium); settings: foliage application, 320 g/ha, three weeks after application
Procedure, shortened: as §2

windgrass [7] = test: Test Example 5: herbicidal effect by foliage application, plastic box (Table 20, symbol L); type: in vivo, windgrass (Apera spica-venti); settings: foliage application, 320 g/ha, three weeks after application
Procedure, shortened: as §2

southern crabgrass [8] = test: Test Example 4: herbicidal effect by soil treatment (Table 19, symbol F); type: in vivo, southern crabgrass (Digitaria ciliaris); settings: amount of applied herbicide 320 g/ha
Procedure, shortened: as §3

barnyard grass [9] = test: Test Example 3: herbicidal effect by foliage application, Wagner pot (Table 18, symbol H); type: in vivo, barnyard grass (Echinochloa crus-galli); settings: 320 g/ha
Procedure, shortened: (§4)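 Plants were sown in alluvial soil held under 0.1–0.5 cm standing water and grown 14 days in a greenhouse at 25–30 °C. An emulsifiable formulation, water-diluted to the set dose, was then sprayed onto the foliage, and effects were scored three weeks later using previously defined criteria.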

persian speedwell [10] = test: Test Example 5: herbicidal effect by foliage application, plastic box (Table 20, symbol R); type: in vivo, Persian speedwell (Veronica persica); settings: foliage application, 320 g/ha, three weeks after application
Procedure, shortened: as §2

barnyard grass [11] = test: Test Example 4: herbicidal effect by soil treatment (Table 19, symbol H); type: in vivo, barnyard grass (Echinochloa crus-galli); settings: amount of applied herbicide 320 g/ha
Procedure, shortened: as §3

velvetleaf [12] = test: Test Example 5: herbicidal effect by foliage application, plastic box (Table 20, symbol M); type: in vivo, velvetleaf (Abutilon theophrasti); settings: foliage application, 320 g/ha, three weeks after application
Procedure, shortened: as §2

lambsquarters [13] = test: Test Example 4: herbicidal effect by soil treatment (Table 19, symbol O); type: in vivo, lambsquarters (Chenopodium album); settings: amount of applied herbicide 320 g/ha
Procedure, shortened: as §3

chickweed [14] = test: Test Example 5: herbicidal effect by foliage application, plastic box (Table 20, symbol P); type: in vivo, common chickweed (Stellaria media); settings: foliage application, 320 g/ha, three weeks after application
Procedure, shortened: as §2

Chinese sprangletop = test: Test Example 3: herbicidal effect by foliage application, Wagner pot (Table 18, symbol D); type: in vivo, chinese sprangletop (Leptochloa chinensis); settings: 320 g/ha
Procedure, shortened: as §4

late watergrass = test: Test Example 2: herbicidal activity, application during weed generation under submerged conditions (Table 17, symbol A); type: in vivo, late watergrass (Echinochloa oryzicola); settings: AAH 320 g/ha; application during weed generation, submerged conditions
Procedure, shortened: as §1

persian speedwell [15] = test: Test Example 4: herbicidal effect by soil treatment (Table 19, symbol R); type: in vivo, Persian speedwell (Veronica persica); settings: amount of applied herbicide 320 g/ha
Procedure, shortened: as §3

oval-leafed pondweed = test: Test Example 2: herbicidal activity, application during weed generation under submerged conditions (Table 17, symbol C); type: in vivo, oval-leafed pondweed (Monochoria vaginalis); settings: AAH 320 g/ha; application during weed generation, submerged conditions
Procedure, shortened: as §1

green foxtail [16] = test: Test Example 4: herbicidal effect by soil treatment (Table 19, symbol G); type: in vivo, green foxtail (Setaria viridis); settings: amount of applied herbicide 320 g/ha
Procedure, shortened: as §3

wild oat [17] = test: Test Example 4: herbicidal effect by soil treatment (Table 19, symbol I); type: in vivo, wild oat (Avena fatua); settings: amount of applied herbicide 320 g/ha
Procedure, shortened: as §3

velvetleaf [18] = test: Test Example 4: herbicidal effect by soil treatment (Table 19, symbol M); type: in vivo, velvetleaf (Abutilon theophrasti); settings: amount of applied herbicide 320 g/ha
Procedure, shortened: as §3

windgrass [19] = test: Test Example 4: herbicidal effect by soil treatment (Table 19, symbol L); type: in vivo, windgrass (Apera spica-venti); settings: amount of applied herbicide 320 g/ha
Procedure, shortened: as §3

chickweed [20] = test: Test Example 4: herbicidal effect by soil treatment (Table 19, symbol P); type: in vivo, common chickweed (Stellaria media); settings: amount of applied herbicide 320 g/ha
Procedure, shortened: as §3

false cleavers [21] = test: Test Example 4: herbicidal effect by soil treatment (Table 19, symbol Q); type: in vivo, false cleavers (Galium spurium); settings: amount of applied herbicide 320 g/ha
Procedure, shortened: as §3

wild oat [22] = test: Test Example 5: herbicidal effect by foliage application, plastic box (Table 20, symbol I); type: in vivo, wild oat (Avena fatua); settings: foliage application, 320 g/ha, three weeks after application
Procedure, shortened: as §2

barnyard grass [23] = test: Test Example 5: herbicidal effect by foliage application, plastic box (Table 20, symbol H); type: in vivo, barnyard grass (Echinochloa crus-galli); settings: foliage application, 320 g/ha, three weeks after application
Procedure, shortened: as §2

redroot pigweed [24] = test: Test Example 5: herbicidal effect by foliage application, plastic box (Table 20, symbol N); type: in vivo, redroot pigweed (Amaranthus retroflexus); settings: foliage application, 320 g/ha, three weeks after application
Procedure, shortened: as §2

southern crabgrass [25] = test: Test Example 5: herbicidal effect by foliage application, plastic box (Table 20, symbol F); type: in vivo, southern crabgrass (Digitaria ciliaris); settings: foliage application, 320 g/ha, three weeks after application
Procedure, shortened: as §2

Italian ryegrass [26] = test: Test Example 5: herbicidal effect by foliage application, plastic box (Table 20, symbol K); type: in vivo, Italian ryegrass (Lolium multiflorum); settings: foliage application, 320 g/ha, three weeks after application
Procedure, shortened: as §2

redroot pigweed [27] = test: Test Example 4: herbicidal effect by soil treatment (Table 19, symbol N); type: in vivo, redroot pigweed (Amaranthus retroflexus); settings: amount of applied herbicide 320 g/ha
Procedure, shortened: as §3

rice flat sedge = test: Test Example 3: herbicidal effect by foliage application, Wagner pot (Table 18, symbol E); type: in vivo, rice flat sedge (Cyperus iria); settings: 320 g/ha
Procedure, shortened: as §4

SMILES: CCCC(=O)Oc1c(C)nn(C)c(=O)c1-c1c(-c2ccc3c(c2)OCO3)sc2ccccc12 [1-088]
- herbicidal effect rating, B: Japanese bulrush (Japanese bulrush): 3 (Herbicidal rate of 40% or more and less than 70%)
- herbicidal effect grade, G: green foxtail (green foxtail [1]): 4 (Herbicidal rate of 70% or more and less than 90%)
- herbicidal effect grade, O: lambsquarters (lambsquarters [2]): 3 (Herbicidal rate of 40% or more and less than 70%)
- herbicidal effect grade, J: blackgrass (blackgrass [3]): 0 (Herbicidal rate of 5% or less (almost no effect))
- herbicidal effect rating, K: Italian ryegrass (Italian ryegrass [4]): 1 (Herbicidal rate of 5% or more and less than 20%)
- herbicidal effect rating, J: blackgrass (blackgrass [5]): 0 (Herbicidal rate of 5% or less (almost no effect))
- herbicidal effect grade, Q: false cleavers (false cleavers [6]): 0 (Herbicidal rate of 5% or less (almost no effect))
- herbicidal effect grade, L: windgrass (windgrass [7]): 0 (Herbicidal rate of 5% or less (almost no effect))
- herbicidal effect rating, F: southern crabgrass (southern crabgrass [8]): 3 (Herbicidal rate of 40% or more and less than 70%)
- herbicidal effect on H (barnyard grass), rating 0-5 (barnyard grass [9]): 5 (Herbicidal rate of 90% or more (almost completely withered))
- herbicidal effect grade, R: persian speedwell (persian speedwell [10]): 5 (Herbicidal rate of 90% or more (almost completely withered))
- herbicidal effect rating, H: barnyard grass (barnyard grass [11]): 4 (Herbicidal rate of 70% or more and less than 90%)
- herbicidal effect grade, M: velvetleaf (velvetleaf [12]): 5 (Herbicidal rate of 90% or more (almost completely withered))
- herbicidal effect rating, O: lambsquarters (lambsquarters [13]): 3 (Herbicidal rate of 40% or more and less than 70%)
- herbicidal effect grade, P: chickweed (chickweed [14]): 5 (Herbicidal rate of 90% or more (almost completely withered))
- herbicidal effect on D (Chinese sprangletop), rating 0-5 (Chinese sprangletop): 3 (Herbicidal rate of 40% or more and less than 70%)
- herbicidal effect rating, A: late watergrass (late watergrass): 1 (Herbicidal rate of 5% or more and less than 20%)
- herbicidal effect rating, R: persian speedwell (persian speedwell [15]): 5 (Herbicidal rate of 90% or more (almost completely withered))
- herbicidal effect rating, C: oval-leafed pondweed (oval-leafed pondweed): 4 (Herbicidal rate of 70% or more and less than 90%)
- herbicidal effect rating, G: green foxtail (green foxtail [16]): 4 (Herbicidal rate of 70% or more and less than 90%)
- herbicidal effect rating, I: wild oat (wild oat [17]): 0 (Herbicidal rate of 5% or less (almost no effect))
- herbicidal effect rating, M: velvetleaf (velvetleaf [18]): 0 (Herbicidal rate of 5% or less (almost no effect))
- herbicidal effect rating, L: windgrass (windgrass [19]): 0 (Herbicidal rate of 5% or less (almost no effect))
- herbicidal effect rating, P: chickweed (chickweed [20]): 4 (Herbicidal rate of 70% or more and less than 90%)
- herbicidal effect rating, Q: false cleavers (false cleavers [21]): 0 (Herbicidal rate of 5% or less (almost no effect))
- herbicidal effect grade, I: wild oat (wild oat [22]): 0 (Herbicidal rate of 5% or less (almost no effect))
- herbicidal effect grade, H: barnyard grass (barnyard grass [23]): 3 (Herbicidal rate of 40% or more and less than 70%)
- herbicidal effect grade, N: redroot pigweed (redroot pigweed [24]): 3 (Herbicidal rate of 40% or more and less than 70%)
- herbicidal effect grade, F: southern crabgrass (southern crabgrass [25]): 3 (Herbicidal rate of 40% or more and less than 70%)
- herbicidal effect grade, K: Italian ryegrass (Italian ryegrass [26]): 3 (Herbicidal rate of 40% or more and less than 70%)
- herbicidal effect rating, N: redroot pigweed (redroot pigweed [27]): 0 (Herbicidal rate of 5% or less (almost no effect))
- herbicidal effect on E (rice flat sedge), rating 0-5 (rice flat sedge): 5 (Herbicidal rate of 90% or more (almost completely withered))
